Test results taken from patent publication US4376858A, “2-4-Diamino-5-methyl-6-[(3,4,5-trimethoxyanilino)methyl]quinazoline salts” (Warner Lambert Company, priority 1982, dated 1983).
Counter-ions that a name gives are not always drawn.

Experiments:
[1] = Solubility of the base 2,4-diamino-5-methyl-6-[(3,4,5-trimethoxyanilino)methyl]quinazoline in aqueous acids (shake-out); format: physicochemical; conditions: for Base Solubility in acid soln.: Table I; for Solubility / Filtrate pH: Table III
[2] = Solubility of prepared 2,4-diamino-5-methyl-6-[(3,4,5-trimethoxyanilino)methyl]quinazoline salts in water; format: physicochemical; conditions: for Solubility in water: Table II, Method A: saturated 2.0 ml H2O overnight, filtrate diluted with methanol, 1440 min; for water solubility (in words): qualitative conclusion from Tables I and II; for Filtrate pH / Solubility: Table III, Prepared Salt
Experimental: Method A: Saturated 2.0 ml H2 O overnight, 0.5 ml of filtrate diluted to 10.0 ml with methanol, added 1 drop of 6 N KOH to UV cell.

[3] = as above; format: physicochemical; conditions: Table II, Method B: saturated 5.0 ml H2O overnight, filtrate diluted with 0.01 N HCl, 1440 min
[4] = Stability and solid form of the salts; format: physicochemical; conditions: qualitative
malaria = conditions: reported in Great Britain Patent Specification No. 1,345,502; cited from earlier work
bacteria = conditions: reported in Great Britain Patent Specification No. 1,345,502; cited from earlier work
neoplasms = conditions: Biochemical Pharmacology 28, 1983-1987; Cancer Research 39, 293-304; cited from earlier work
[5] = 0.1 M acid per method (head: 1 M soln.), 0.05 M base, shaken 4-12 hours, UV 321 nm
[6] = listed as 2,4-diamino-5-methyl-6-[(3,4,5-trimethoxyanilino)methyl]quinazoline glucuronate
[7] = lines marked *: .05 M acid, 1/1 acid/base
[8] = acid conc. .1 M, acid/base 2/1, * not saturated (isethionic, ethoxyacetic)
[9] = acid conc. .06 M, acid/base 1/1

COc1cc(NCc2ccc3nc(N)nc(N)c3c2C)cc(OC)c1OC [p-Toluene sulfonic]
Base Solubility in acid soln. [1, 5]: 2.74 mg base/ml

COc1cc(NCc2ccc3nc(N)nc(N)c3c2C)cc(OC)c1OC [Gentisate]
Solubility in water [2]: 1.4-7.06 mg base/ml | Solubility in water [3]: 0.28 mg base/ml

COc1cc(NCc2ccc3nc(N)nc(N)c3c2C)cc(OC)c1OC [Glucuronate, 2,4-Diamino-5-methyl-6-[(3,4,5-trimethoxyanilino)methyl]quinazoline D-glucuronate]
Base Solubility in acid soln. ([1]; 0.1 M acid per method (head: 1 M soln.), 0.05 M base, shaken 4-12 hours, UV 321 nm, listed as Glucuronic): 34.35 mg base/ml | water solubility (in words) [2, 6]: higher degree of solubility | solid form (in words) [4, 6]: powdery rather than crystalline | Solubility in water [3]: 109.4 mg base/ml

COc1cc(NCc2ccc3nc(N)nc(N)c3c2C)cc(OC)c1OC [Gluconatete]
Solubility in water [3]: 2.55 mg base/ml

COc1cc(NCc2ccc3nc(N)nc(N)c3c2C)cc(OC)c1OC [3-Hydroxypropyl sulfonate]
Solubility in water [3]: 4.73 mg base/ml

COc1cc(NCc2ccc3nc(N)nc(N)c3c2C)cc(OC)c1OC [Ethane sulfonate]
Solubility in water [3]: 2.64 mg base/ml

COc1cc(NCc2ccc3nc(N)nc(N)c3c2C)cc(OC)c1OC [Benzene sulfonate]
Base Solubility in acid soln. ([1]; lines marked *: .05 M acid, 1/1 acid/base, listed as Benzene sulfonic): 1.89 mg base/ml | Base Solubility in acid soln. ([1]; 0.1 M acid per method (head: 1 M soln.), 0.05 M base, shaken 4-12 hours, UV 321 nm, listed as Benzene sulfonic): 7.17 mg base/ml | Solubility ([1]; acid conc. .05 M, acid/base 1/1, * not saturated (isethionic), listed as Benzene sulfonic): 1.89 mg base/ml | Filtrate pH ([1]; acid conc. .05 M, acid/base 1/1, listed as Benzene sulfonic): 2.95 | Solubility ([1]; acid conc. .1 M, acid/base 2/1, * not saturated (isethionic, ethoxyacetic), listed as Benzene sulfonic): 7.17 mg base/ml | Filtrate pH ([1]; acid conc. .1 M, acid/base 2/1, listed as Benzene sulfonic): 2.95 | Filtrate pH ([2]; listed as Benzene sulfonic): 4.45 | Solubility ([2]; listed as Benzene sulfonic): 1.24 mg base/ml | Solubility in water [3]: 1.24 mg base/ml

COc1cc(NCc2ccc3nc(N)nc(N)c3c2C)cc(OC)c1OC [d-Tartaric]
Base Solubility in acid soln. [1, 5]: 1.57 mg base/ml

COc1cc(NCc2ccc3nc(N)nc(N)c3c2C)cc(OC)c1OC [Glycolic]
Base Solubility in acid soln. [1, 7]: 4.73 mg base/ml | Base Solubility in acid soln. [1, 5]: 4.13 mg base/ml | Filtrate pH ([1]; acid conc. .1 M, acid/base 1/1): 3.28 | Solubility ([1]; acid conc. .1 M, acid/base 1/1): 4.73 mg base/ml | Filtrate pH ([1]; acid conc. .1 M, acid/base 2/1): 3.00 | Solubility [1, 8]: 4.13 mg base/ml | Filtrate pH [2]: 5.30 | Solubility [2]: 2.55 mg base/ml

COc1cc(NCc2ccc3nc(N)nc(N)c3c2C)cc(OC)c1OC [N--(Morpholine)ethane-2-sulfonic]
Base Solubility in acid soln. [1, 5]: 11.2 mg base/ml

COc1cc(NCc2ccc3nc(N)nc(N)c3c2C)cc(OC)c1OC [Gluconic]
Base Solubility in acid soln. [1, 7]: 19.8 mg base/ml | solid form (in words) ([4]; listed as gluconate): undesirable amorphous form

COc1cc(NCc2ccc3nc(N)nc(N)c3c2C)cc(OC)c1OC [Lactate]
Solubility in water [2]: 4.34 mg base/ml

COc1cc(NCc2ccc3nc(N)nc(N)c3c2C)cc(OC)c1OC [Free base, 2,4-diamino-5-methyl-6-[(3,4,5-trimethoxyanilino)methyl]quinazoline]
Solubility in water [2]: 0.2 mg base/ml | Solubility in water [3]: 0.1 mg base/ml | antimalarial activity (malaria): exhibiting antimalarial and antibacterial activity | antibacterial activity (bacteria): exhibiting antimalarial and antibacterial activity | antineoplastic activity (neoplasms): exhibit antineoplastic activity

COc1cc(NCc2ccc3nc(N)nc(N)c3c2C)cc(OC)c1OC [Ethoxyacetate]
Base Solubility in acid soln. ([1]; lines marked *: .05 M acid, 1/1 acid/base, listed as Ethoxyacetic): 19.7 mg base/ml | Base Solubility in acid soln. ([1]; 0.1 M acid per method (head: 1 M soln.), 0.05 M base, shaken 4-12 hours, UV 321 nm, listed as Ethoxyacetic): 19.5 mg base/ml | Solubility ([1]; acid conc. .065 M, acid/base 1/1, * not saturated): 19.7 mg base/ml | Solubility [1, 8]: 19.5 mg base/ml | Solubility ([2]; listed as Ethoxyacetic): 6.3 mg base/ml | Solubility in water [3]: 6.3 mg base/ml

COc1cc(NCc2ccc3nc(N)nc(N)c3c2C)cc(OC)c1OC [Isethionate, 2,4-Diamino-5-methyl-6-[(3,4,5-trimethoxyanilino)methyl]quinazoline monoisethionate]
Base Solubility in acid soln. ([1]; lines marked *: .05 M acid, 1/1 acid/base, listed as Isethionic): 17.3 mg base/ml | Base Solubility in acid soln. ([1]; 0.1 M acid per method (head: 1 M soln.), 0.05 M base, shaken 4-12 hours, UV 321 nm, listed as Isethionic): 16.3 mg base/ml | Solubility ([1]; acid conc. .05 M, acid/base 1/1, * not saturated (isethionic)): 17.34 mg base/ml | Filtrate pH ([1]; acid conc. .05 M, acid/base 1/1, listed as Isethionic): 3.70 | Solubility [1, 8]: 16.33 mg base/ml | Filtrate pH ([1]; acid conc. .1 M, acid/base 2/1, listed as Isethionic): 1.83 | Solubility in water [2]: 23.93 mg base/ml | Filtrate pH ([2]; listed as Isethionic): 5.30 | Solubility ([2]; listed as Isethionic): 24.8 mg base/ml | water solubility (in words) [2]: highly water soluble | solid form (in words) [4]: crystalline | stability (in words) [4]: stable | Solubility in water [3]: 24.78 mg base/ml

COc1cc(NCc2ccc3nc(N)nc(N)c3c2C)cc(OC)c1OC [Hydrochloride]
Solubility in water [2]: 3.22 mg base/ml

COc1cc(NCc2ccc3nc(N)nc(N)c3c2C)cc(OC)c1OC [Methane sulfonic]
Base Solubility in acid soln. [1, 7]: 6.49 mg base/ml | Base Solubility in acid soln. [1, 5]: 9.83 mg base/ml | Filtrate pH [1, 9]: 3.00 | Solubility [1, 9]: 6.5 mg base/ml | Solubility ([1]; acid conc. .1 M, acid/base 1/.9): 8.74 mg base/ml | Filtrate pH [2]: 5.32 | Solubility [2]: 4.9 mg base/ml

COc1cc(NCc2ccc3nc(N)nc(N)c3c2C)cc(OC)c1OC [Acetate]
Solubility in water [2]: 1.72 mg base/ml

COc1cc(NCc2ccc3nc(N)nc(N)c3c2C)cc(OC)c1OC [Galacturonic]
Base Solubility in acid soln. [1, 5]: 25.1 mg base/ml | solid form (in words) ([4]; listed as galacturonate): undesirable amorphous form
